Experimental data as given in patent publication US8143025B2, “Antibodies against vascular endothelial growth factor receptor-1” (ImClone LLC, priority 2004, dated 2012).
Entries after “also recorded” stand apart in the source; their conditions may differ.

Assays:
[1] = biological target: T1, DU4475 human breast carcinoma cells (Homo sapiens, UniProt P17948); assay: Flow cytometry analysis, DU4475 cells; type: binding; conditions: FIG. 8B
T1 construct: host or cells: DU4475 human breast carcinoma cells
Experimental: Aliquots of 10^6PAE-VEGFR-I cells were harvested from subconfluent cultures and incubated with anti-VEGFR-I antibody clones 6F9, 13G12, F11, and 18F1 in PBS with 1% bovine serum albumin (BSA) and 0.02% sodium azide (staining buffer) for one hour on ice. Aliquots of 10^6DU4475 human breast carcinoma cells were harvested from subconfluent cultures and incubated with anti-VEGFR-1 antibody clone 18F1 in PBS with 1% bovine serum albumin (BSA) and 0.02% sodium azide (staining buffer) for one hour on ice. A matched IgG isotype (Jackson ImmunoResearch, West Grove, Pa.) was used as a negative control. Cells were washed twice with flow buffer and then incubated with a fluorescein isothiocyanate (FITC)-labeled goat anti-human IgG antibody (BioSource International, Camarillo, Calif.) in staining buffer for 30 minutes on ice. Cells were washed as above and analyzed on an Epics XL flow cytometer (Beckman-Coulter, Hialeah, Fla.). Dead cells and debris were eliminated from the analysis on the basis of forward and sideways light scatter. The mean fluorescent intensity units (MFRJ) were calculated as the mean log fluorescence multiplied by the percentage of positive population.

MDA-MB-231 xenograft = assay: MDA-MB-231 breast tumor xenograft; type: in vivo, mouse
Experimental: Mice in control groups received an equal volume of saline solution. Treatment of animals was continued for the duration of the experiment. Tumors were measured twice each week with calipers. Tumor volumes were calculated using the formula [π/6 (w1×w2×w2)], where “w1” represents the largest tumor diameter and “w2” represents the smallest tumor diameter. […] When tumors reached approximately 200-300 mm^3, mice were randomized by tumor size and divided into treatment groups. Tumor growth was evaluated approximately twice weekly, with tumor volume calculated as π/6* (Length*Width^2), where Length=longest diameter and Width=diameter perpendicular to Length. Tumor dimensions were measured with calipers. T/C % was calculated as 100*(Final Treatment Tumor Volume/Initial Treatment Tumor Volume)/(Final Control Tumor Volume/Initial Control Tumor Volume). […] The effect of treatment on tumor growth was analyzed using repeated measures analysis of variance (RM ANOVA), p<0.05 was considered significant. […] Antibody treatments administered at a constant dose per mouse were administered in a volume of 0.5 mL per mouse. Antibody and cytotoxic treatments administered at a dose proportional to body weight were given in a volume of 10 μL per gram body weight. […] AU treatments were administered i.p. The effect of treatments on tumor growth were analyzed using repeated measures analysis of variance (RM ANOVA), p<0.05 was considered significant.

[2] = test system: HT-29 human colon carcinoma cells; assay: Soft agarose colony formation; type: cell-based; conditions: 66 nM antibody, 10 ng/mL VEGF-A or 50 ng/mL VEGF-B, 14 days, p<0.03
Experimental: One mL DMEM medium containing 10% FBS and 1% agarose (Cambrex Corporation, East Rutherford, N.J.) was plated in each well of six well plates. HT-29 human colon carcinoma cells in serum free medium were treated with 66 nM 18F1 or control IgG for 1 hour and followed by treatment with 10 ng/mL VEGF-A or 50 ng/mL VEGF-B for additional 4 hours. The treated cells were mixed with 1 mL 10% FBS DMEM containing 0.5% agarose and the appropriate antibodies and/or ligands. One mL of this suspension, containing 250 cells, was plated in each well on top of the 1% agarose base layer. After 2 days, additional medium containing antibodies and/or ligands was added to the wells to keep the agarose hydrated. Cells were allowed to grow for 14 days at 37° C. Afterwards, colonies larger than 50 μm in diameter were counted using a dissecting microscope. Statistical analysis was performed using hiStat Statistical Software (V2.03, GraphPad Software, San Diego, Calif.)

HT-29 cells = assay: Migration through membrane insert; type: cell-based, human; conditions: 66 nM antibody, 10 ng/mL VEGF-A or 50 ng/mL VEGF-B, 48 hours, p<0.05, FIG. 23
Experimental: HT-29 cells (2.5×1 10^4) or SW480 cells (1.5×1 10^4) were incubated in medium containing 1% FBS with the anti-VEGFR-1 antibody 18F1 (66 nM) in the upper surface of a 24 well MATRIGEL™ coated (HT-29) or uncoated (SW480) 8.0-μm pore size membrane insert (Becton Dickinson Labware, Bedford, Mass.). The inserts were placed into lower chambers containing 10 ng/mL VEGF-A (R&D Systems) or 50 ng/mL VEGF-B (R&D Systems) for 48 hours. Cells remaining in the top chamber of the inserts were removed with a cotton swab. Cells migrating to the underside of the inserts were stained with Diff-Quik (Harleco, Gibbstown, N.J.) and counted in ten random fields at 100× magnification. Statistical analysis was performed using InStat Statistical Software (V2.03, GraphPad Software, San Diego, Calif.).

VEGFR-I = VEGFR-I (Homo sapiens, UniProt P17948); assay: VEGFR-I phosphorylation assay, PAE-VEGFR-I cells; type: cell-based; parameters: host or cells: porcine aorta endothelial (PAE) cells; conditions: PAE-VEGFR-I transfectant, compared to untreated control, FIG. 10
Experimental: Confluent porcine aorta endothelial VEGFR-I expressing (PAE-VEGFR-I) cells and BT474 human breast carcinoma cells were cultured in serum-depleted F12 medium for 48 hours. The cells were then preincubated with anti-VEGFR-I antibody clone 18F1 at concentrations ranging from 0.1 to 30 μg/ml for 1 hour followed by stimulating with VEGF or PlGF for 5 minutes at 37° C. The cells were then rinsed with ice-cold PBS and lysed in lysis buffer (50 mM HEPES, 150 mM NaCl, 1% Triton X-100, and 10% glycerol containing 1 mM phenylmethylsulfonyl fluoride, 10 μg/ml aprotinin, 10 μg/ml leupeptin, and 1 mM sodium vanadate). Cell lysates were subjected to SDS-PAGE and transferred onto Immobilon membranes (Millipore Corp. Billerica, Mass.). […]
Autophosphorylation of the VEGFR-I induced by its ligands and resulting activation of a classical MAPK, extracellular signal-regulated protein kinases 1Z2 (ERK1Z2) and the PBK/Atk downstrean signaling pathways mediate cellular biological responses such as proliferation, motility, survival, and differentiation. The ability of an anti-VEGFR-1 antibody to inhibit phosphorylation of VEGFR-I and activation of ERK1 Z2 and the Akt kinases downstream signaling were determined by using the PAE-VEGFR-I transfectant and BT474 breast carcinoma cells. […]

Sequence of VEGFR-I (P17948 27-1338): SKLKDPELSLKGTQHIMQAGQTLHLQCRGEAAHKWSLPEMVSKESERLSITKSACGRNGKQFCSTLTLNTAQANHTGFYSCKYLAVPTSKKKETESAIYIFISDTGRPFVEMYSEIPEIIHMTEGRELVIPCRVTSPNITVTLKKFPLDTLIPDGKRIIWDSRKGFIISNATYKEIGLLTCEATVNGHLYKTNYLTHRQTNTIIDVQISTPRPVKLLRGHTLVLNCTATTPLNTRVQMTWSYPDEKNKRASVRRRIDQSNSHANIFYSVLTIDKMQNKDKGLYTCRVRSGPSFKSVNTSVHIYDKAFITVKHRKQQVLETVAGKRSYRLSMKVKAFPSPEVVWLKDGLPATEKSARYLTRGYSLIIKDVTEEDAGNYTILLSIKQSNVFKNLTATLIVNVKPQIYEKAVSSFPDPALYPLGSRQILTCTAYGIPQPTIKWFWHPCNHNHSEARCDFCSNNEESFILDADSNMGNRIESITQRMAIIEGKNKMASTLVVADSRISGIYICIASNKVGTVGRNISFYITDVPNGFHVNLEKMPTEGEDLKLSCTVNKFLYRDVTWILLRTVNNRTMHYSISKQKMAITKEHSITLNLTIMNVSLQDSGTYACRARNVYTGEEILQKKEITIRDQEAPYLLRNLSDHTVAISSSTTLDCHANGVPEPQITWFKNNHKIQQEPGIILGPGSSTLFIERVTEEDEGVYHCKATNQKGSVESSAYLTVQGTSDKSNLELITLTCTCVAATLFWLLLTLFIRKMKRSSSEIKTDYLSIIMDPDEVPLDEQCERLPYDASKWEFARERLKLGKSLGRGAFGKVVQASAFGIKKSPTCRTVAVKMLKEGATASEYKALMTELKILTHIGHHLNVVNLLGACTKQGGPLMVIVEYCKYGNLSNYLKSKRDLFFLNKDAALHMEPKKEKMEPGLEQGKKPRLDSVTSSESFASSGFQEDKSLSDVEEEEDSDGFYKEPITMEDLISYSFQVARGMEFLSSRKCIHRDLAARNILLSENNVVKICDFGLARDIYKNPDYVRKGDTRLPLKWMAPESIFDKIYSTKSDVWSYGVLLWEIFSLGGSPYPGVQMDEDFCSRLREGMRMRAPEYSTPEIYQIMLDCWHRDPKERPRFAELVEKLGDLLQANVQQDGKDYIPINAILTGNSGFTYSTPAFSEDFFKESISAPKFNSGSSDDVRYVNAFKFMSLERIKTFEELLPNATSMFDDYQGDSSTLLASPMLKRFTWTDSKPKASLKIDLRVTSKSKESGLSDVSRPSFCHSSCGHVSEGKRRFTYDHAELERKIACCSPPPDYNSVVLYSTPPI
T1 sequence (P17948 27-1338): as above

- binding reactivity with DU4475 human breast carcinoma [1]: binding reactivity
Substance: 18F1: human anti-VEGFR-1 monoclonal antibody clone; VL SEQ ID NO: 16, VH SEQ ID NO: 20 [Clone 18F1]
- tumor growth of the MDA-MB-231 xenograft (MDA-MB-231 xenograft; 0.5 or 1 mg per dose three times each week, ANOVA p<0.05, FIG. 20B): statistically significant suppression
- growth of MDA-MB-231 xenograft tumors (MDA-MB-231 xenograft; Example 9, intraperitoneal, p<0.05): significantly (p<0.05) suppressed
- tumor growth inhibition, MDA-MB-231 xenograft (MDA-MB-231 xenograft; Example 11, p<0.05, FIG. 28A): significant tumor growth inhibition
- VEGF-A or VEGF-B induced colony formation [2]: completely suppressed
- VEGFR-I ligand induced migration (HT-29 cells): completely blocked
- PlGF-stimulated phosphorylation of VEGFR-I (VEGFR-I): significantly reduced; also recorded: reduction
